In ChEMBL document CHEMBL1145918, “Synthesis, comparative photosensitizing efficacy, human serum albumin (site II) binding ability, and intracellular localization characteristics of novel benzobacteriochlorins derived from vic-dihydroxybacteriochlorins” (J Med Chem, 2003):

target: Albumin (Homo sapiens, UniProt P02768); assay: Compound was tested for its binding ability to site II of Human serum albumin (HSA) expressed as binding constant
Sequence (P02768 whole entry): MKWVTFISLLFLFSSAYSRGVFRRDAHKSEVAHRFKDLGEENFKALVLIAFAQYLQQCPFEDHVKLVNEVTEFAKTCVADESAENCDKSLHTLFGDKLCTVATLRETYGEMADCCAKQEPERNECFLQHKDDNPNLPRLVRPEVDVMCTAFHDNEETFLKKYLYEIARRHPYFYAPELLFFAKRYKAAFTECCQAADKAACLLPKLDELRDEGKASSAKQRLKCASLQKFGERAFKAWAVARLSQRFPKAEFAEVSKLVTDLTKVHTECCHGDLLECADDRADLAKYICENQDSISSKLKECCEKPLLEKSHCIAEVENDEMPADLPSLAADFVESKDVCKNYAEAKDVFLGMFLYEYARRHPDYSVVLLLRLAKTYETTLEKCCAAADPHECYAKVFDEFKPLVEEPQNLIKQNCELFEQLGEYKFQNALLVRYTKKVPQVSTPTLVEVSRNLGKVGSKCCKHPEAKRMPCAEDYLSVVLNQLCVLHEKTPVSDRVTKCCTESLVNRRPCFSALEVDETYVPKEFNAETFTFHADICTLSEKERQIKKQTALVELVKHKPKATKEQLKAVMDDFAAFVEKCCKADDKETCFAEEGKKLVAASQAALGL

Structure (SMILES) | K
CCc1c(C)c2cc3nc(c(C(=O)OC)c4nc(cc5[nH]c(cc1[nH]2)C1(C)C5=CC=C(C(=O)OC)C1C(=O)OC)C(C)=C4C(=O)OC)[C@@H](CCC(=O)OC)[C@@H]3C (stereo not given in full) | 14400000 M⁻¹
CCc1c(C)c2cc3nc(c4c5nc(cc6[nH]c(cc1[nH]2)C1(C)C6=CC=C(C(=O)OC)C1C(=O)OC)C(C)=C5C(=O)N(Cc1cc(C(F)(F)F)cc(C(F)(F)F)c1)C4=O)[C@@H](CCC(=O)OC)[C@@H]3C (stereo not given in full) | 16000000 M⁻¹
CCc1c(C)c2cc3nc(c(CC(=O)OC)c4nc(cc5[nH]c(cc1[nH]2)C1(C)C5=CC=C(C(=O)OC)C1C(=O)OC)C(C)=C4C(=O)OC)[C@@H](CCC(=O)OC)[C@@H]3C (stereo not given in full) | 17500000 M⁻¹

Next, values leading:

K | Structure (SMILES)
10600000 M⁻¹ | CCc1c(C)c2cc3nc(c4c5nc(cc6[nH]c(cc1[nH]2)C1(C)C6=CC=C(C(=O)OC)C1C(=O)OC)C(C)=C5C(=O)C4)[C@@H](CCC(=O)OC)[C@@H]3C (stereo not given in full)
16100000 M⁻¹ | CCCCCCN1C(=O)C2=C(C)c3cc4[nH]c(cc5[nH]c(cc6nc(c(c2n3)C1=O)[C@@H](CCC(=O)OC)[C@@H]6C)c(C)c5CC)C1(C)C4=CC=C(C(=O)OC)C1C(=O)OC (stereo not given in full)
